Test system: 616215-338-R-J1-PDC complex spheroid viability
Test: Anticancer human tumor 616215-338-R-J1-PDC patient-derived colon adenocarcinoma cell line growth inhibition [RAS]
Conditions: for IC50: curve of first compound; for viability, T/C: stronger effect = lower value
How it was run: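 Multi-cell-type spheroids: tumor cells plus HUVEC endothelial cells and mesenchymal stem cells. RAS-pathway inhibitors were combined with targeted agents, each dosed in half-log steps down from clinical Cmax, or from 10 microM when Cmax was unknown.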

[1] = second compound 0.000949 µM, first compound 0.0316 µM
[2] = second compound 0.000949 µM, first compound 0.1 µM
[3] = second compound 0.000949 µM, first compound 0.316 µM
[4] = second compound 0.000949 µM, first compound 1 µM
[5] = second compound 0.000949 µM, first compound 3.16 µM
[6] = second compound 0.000949 µM, first compound 10 µM
[7] = second compound 0.003 µM, first compound 0.0316 µM
[8] = second compound 0.003 µM, first compound 0.1 µM
[9] = second compound 0.003 µM, first compound 0.316 µM
[10] = second compound 0.003 µM, first compound 1 µM
[11] = second compound 0.003 µM, first compound 3.16 µM
[12] = second compound 0.003 µM, first compound 10 µM
[13] = second compound 0.00949 µM, first compound 0.0316 µM
[14] = second compound 0.00949 µM, first compound 0.1 µM
[15] = second compound 0.00949 µM, first compound 0.316 µM
[16] = second compound 0.00949 µM, first compound 1 µM
[17] = second compound 0.00949 µM, first compound 3.16 µM
[18] = second compound 0.00949 µM, first compound 10 µM
[19] = second compound 0.03 µM, first compound 0.0316 µM
[20] = second compound 0.03 µM, first compound 0.1 µM
[21] = second compound 0.03 µM, first compound 0.316 µM
[22] = second compound 0.03 µM, first compound 1 µM
[23] = second compound 0.03 µM, first compound 3.16 µM
[24] = second compound 0.03 µM, first compound 10 µM
[25] = second compound 0.0949 µM, first compound 0.0316 µM
[26] = second compound 0.0949 µM, first compound 0.1 µM
[27] = second compound 0.0949 µM, first compound 0.316 µM
[28] = second compound 0.0949 µM, first compound 1 µM
[29] = second compound 0.0949 µM, first compound 3.16 µM
[30] = second compound 0.0949 µM, first compound 10 µM
[31] = second compound 0.3 µM, first compound 0.0316 µM
[32] = second compound 0.3 µM, first compound 0.1 µM
[33] = second compound 0.3 µM, first compound 0.316 µM
[34] = second compound 0.3 µM, first compound 1 µM
[35] = second compound 0.3 µM, first compound 3.16 µM
[36] = second compound 0.3 µM, first compound 10 µM
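Also: spheroids exposed to agents for seven days before viability readout.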
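For viability, T/C in this document: 100% = DMSO vehicle control viability.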

SMILES: CC1(O)CCCC1n1c(=O)c(C(F)F)cc2cnc(NC3CCN(S(C)(=O)=O)CC3)nc21 (stereo not drawn) + CCn1c(-c2cc(N3CCN(C)CC3)cnc2C(C)OC)c2c3cc(ccc31)-c1csc(n1)CC(NC(=O)C1CC1C)C(=O)N1CCCC(N1)C(=O)OCC(C)(C)C2
- IC50 (second compound 0.000949 µM): 1130 nM
- IC50 (second compound 0.003 µM): 199 nM
- IC50 (second compound 0.00949 µM): 37.4 nM
- IC50 (second compound 0.03 µM): < 31.6 nM
- IC50 (second compound 0.0949 µM): < 31.6 nM
- IC50 (second compound 0.3 µM): < 31.6 nM
- viability, T/C [1]: 122%
- viability, T/C [2]: 111%
- viability, T/C [3]: 54.4%
- viability, T/C [4]: 47.8%
- viability, T/C [5]: 46.6%
- viability, T/C [6]: 2%
- viability, T/C [7]: 113%
- viability, T/C [8]: 65.1%
- viability, T/C [9]: 30.5%
- viability, T/C [10]: 36.8%
- viability, T/C [11]: 38.9%
- viability, T/C [12]: 4.05%
- viability, T/C [13]: 49.9%
- viability, T/C [14]: 51.1%
- viability, T/C [15]: 29.7%
- viability, T/C [16]: 23.9%
- viability, T/C [17]: 31.9%
- viability, T/C [18]: 2.73%
- viability, T/C [19]: 47.4%
- viability, T/C [20]: 28%
- viability, T/C [21]: 22.7%
- viability, T/C [22]: 22.2%
- viability, T/C [23]: 36.3%
- viability, T/C [24]: 2.37%
- viability, T/C [25]: 35%
- viability, T/C [26]: 27.4%
- viability, T/C [27]: 21.3%
- viability, T/C [28]: 22.1%
- viability, T/C [29]: 28.7%
- viability, T/C [30]: 2.08%
- viability, T/C [31]: 31%
- viability, T/C [32]: 32%
- viability, T/C [33]: 16.4%
- viability, T/C [34]: 30.3%
- viability, T/C [35]: 29.7%
- viability, T/C [36]: 4.15%

SMILES: CCC(CC)c1cc(NC2CCC(N)C2)n2nccc2n1 (stereo not drawn) + CCn1c(-c2cc(N3CCN(C)CC3)cnc2C(C)OC)c2c3cc(ccc31)-c1csc(n1)CC(NC(=O)C1CC1C)C(=O)N1CCCC(N1)C(=O)OCC(C)(C)C2
- IC50 (second compound 0.000949 µM): 1830 nM
- IC50 (second compound 0.003 µM): 1880 nM
- IC50 (second compound 0.00949 µM): 1590 nM
- IC50 (second compound 0.03 µM): 1130 nM
- IC50 (second compound 0.0949 µM): < 31.6 nM
- IC50 (second compound 0.3 µM): < 31.6 nM
- viability, T/C [1]: 122%
- viability, T/C [2]: 113%
- viability, T/C [3]: 95%
- viability, T/C [4]: 105%
- viability, T/C [5]: 0.4%
- viability, T/C [6]: 0.24%
- viability, T/C [7]: 109%
- viability, T/C [8]: 108%
- viability, T/C [9]: 116%
- viability, T/C [10]: 110%
- viability, T/C [11]: 0.37%
- viability, T/C [12]: 0.22%
- viability, T/C [13]: 80.7%
- viability, T/C [14]: 92.2%
- viability, T/C [15]: 72.6%
- viability, T/C [16]: 88.4%
- viability, T/C [17]: 0.29%
- viability, T/C [18]: 0.22%
- viability, T/C [19]: 50.2%
- viability, T/C [20]: 55.3%
- viability, T/C [21]: 56.5%
- viability, T/C [22]: 62.5%
- viability, T/C [23]: 0.28%
- viability, T/C [24]: 0.2%
- viability, T/C [25]: 41.6%
- viability, T/C [26]: 39.9%
- viability, T/C [27]: 51.1%
- viability, T/C [28]: 49.3%
- viability, T/C [29]: 0.28%
- viability, T/C [30]: 0.23%
- viability, T/C [31]: 30.5%
- viability, T/C [32]: 38.5%
- viability, T/C [33]: 45.7%
- viability, T/C [34]: 47.9%
- viability, T/C [35]: 0.33%
- viability, T/C [36]: 0.27%

SMILES: Cc1nc(N2CCC3(CC2)COC(C)C3N)c(CO)nc1Sc1ccnc(N)c1Cl (stereo not drawn) + CCn1c(-c2cc(N3CCN(C)CC3)cnc2C(C)OC)c2c3cc(ccc31)-c1csc(n1)CC(NC(=O)C1CC1C)C(=O)N1CCCC(N1)C(=O)OCC(C)(C)C2
- IC50 (second compound 0.000949 µM): > 10000 nM
- IC50 (second compound 0.003 µM): 1670 nM
- IC50 (second compound 0.00949 µM): 214 nM
- IC50 (second compound 0.03 µM): < 31.6 nM
- IC50 (second compound 0.0949 µM): < 31.6 nM
- IC50 (second compound 0.3 µM): < 31.6 nM
- viability, T/C [1]: 123%
- viability, T/C [2]: 106%
- viability, T/C [3]: 85.6%
- viability, T/C [4]: 75.6%
- viability, T/C [5]: 63.1%
- viability, T/C [6]: 61.9%
- viability, T/C [7]: 118%
- viability, T/C [8]: 92.5%
- viability, T/C [9]: 66.4%
- viability, T/C [10]: 49.7%
- viability, T/C [11]: 54.9%
- viability, T/C [12]: 39.1%
- viability, T/C [13]: 71%
- viability, T/C [14]: 55.4%
- viability, T/C [15]: 46.9%
- viability, T/C [16]: 42.6%
- viability, T/C [17]: 44.2%
- viability, T/C [18]: 38%
- viability, T/C [19]: 43.8%
- viability, T/C [20]: 47.5%
- viability, T/C [21]: 46.9%
- viability, T/C [22]: 39.9%
- viability, T/C [23]: 45.5%
- viability, T/C [24]: 36.6%
- viability, T/C [25]: 38.9%
- viability, T/C [26]: 37.5%
- viability, T/C [27]: 40.6%
- viability, T/C [28]: 40.3%
- viability, T/C [29]: 44.2%
- viability, T/C [30]: 46.6%
- viability, T/C [31]: 36.7%
- viability, T/C [32]: 40.9%
- viability, T/C [33]: 47.3%
- viability, T/C [34]: 39.1%
- viability, T/C [35]: 44.7%
- viability, T/C [36]: 37.1%

SMILES: NC1c2ccccc2OC12CCN(c1cnc3c(N4CCCc5ncccc54)n[nH]c3n1)CC2 (stereo not drawn) + CCn1c(-c2cc(N3CCN(C)CC3)cnc2C(C)OC)c2c3cc(ccc31)-c1csc(n1)CC(NC(=O)C1CC1C)C(=O)N1CCCC(N1)C(=O)OCC(C)(C)C2
- IC50 (second compound 0.000949 µM): 2240 nM
- IC50 (second compound 0.003 µM): 228 nM
- IC50 (second compound 0.00949 µM): < 31.6 nM
- IC50 (second compound 0.03 µM): < 31.6 nM
- IC50 (second compound 0.0949 µM): < 31.6 nM
- IC50 (second compound 0.3 µM): < 31.6 nM
- viability, T/C [1]: 81.9%
- viability, T/C [2]: 69.7%
- viability, T/C [3]: 60%
- viability, T/C [4]: 55.5%
- viability, T/C [5]: 51.2%
- viability, T/C [6]: 40.2%
- viability, T/C [7]: 73.5%
- viability, T/C [8]: 60.6%
- viability, T/C [9]: 44.6%
- viability, T/C [10]: 41.9%
- viability, T/C [11]: 35.2%
- viability, T/C [12]: 37.1%
- viability, T/C [13]: 49.4%
- viability, T/C [14]: 48.4%
- viability, T/C [15]: 42.9%
- viability, T/C [16]: 42.2%
- viability, T/C [17]: 36.4%
- viability, T/C [18]: 31.1%
- viability, T/C [19]: 38.7%
- viability, T/C [20]: 34.9%
- viability, T/C [21]: 33.9%
- viability, T/C [22]: 40.1%
- viability, T/C [23]: 35.2%
- viability, T/C [24]: 30.5%
- viability, T/C [25]: 35.9%
- viability, T/C [26]: 42.6%
- viability, T/C [27]: 47.9%
- viability, T/C [28]: 42.2%
- viability, T/C [29]: 44.2%
- viability, T/C [30]: 34.6%
- viability, T/C [31]: 51.7%
- viability, T/C [32]: 40.5%
- viability, T/C [33]: 44.6%
- viability, T/C [34]: 41.1%
- viability, T/C [35]: 45.3%
- viability, T/C [36]: 32.4%
